Experiment [1] relates to Human neutrophils. The experiment in a line: Release of human neutrophil elastase (NE) from FMLP/CB-activated neutrophils. The format is cell-based. As to conditions: substrate MeO-Suc-Ala-Ala-Pro-Val-p-nitroanilide, 405 nm, mean ± S.E.M. (n = 3). On the procedure: (§1) Human neutrophils were prepared by the following procedure. […] The precipitate thus obtained was treated with a hypotonic solution, i.e., 0.2% NaCl, to lyse erythrocytes, followed by removal of the lysed erythrocytes using centrifugation at 200 g and 4° C. for 8 minutes so as to obtain the neutrophils. […] The neutrophil suspension was stored at 4° C. before use.
The neutrophils obtained in the section of “3. […] In a control group, 100% DMSO was used to substitute the compound solution. […] The reacted mixture was added with 1.5 μl of cytochalasin B (CB, 0.5 mg/ml) and was incubated for 3 minutes, followed by addition with 1.5 μl of formyl-L-methionyl-L-leucyl-L-phenylalanine (FMLP, 100 μM) and reaction for 10 minutes to activate neutrophils.

In experiment [2] the test system is Human neutrophils. The experiment in a line: O2•− generation assay (SOD-inhibitable reduction of ferricytochrome c) in FMLP/CB-activated neutrophils. As to conditions: Neutrophil, absorbance 550 nm, mean ± S.E.M. (n = 3). The format is cell-based. As to the method:
as §1
The O2^•− generation assay was based on the superoxide dismutase (SCD)-inhinitable reduction of ferricytochrome c. […] The neutrophils obtained in the section of “3. […] In a control group, 100% DMSO was used to substitute the compound solution. Moreover, in the positive control group, diphenyleneiodonium (DPI) was used to substitute the compound solution. The reacted mixture was added with 1.5 μl of cytochalasin B (CB, […]) and was incubated for […], followed by addition with 1.5 μl of formyl-L-methionyl-L-leucyl-L-phenylalanine (FMLP, 100 μM) and reaction for 10 minutes to activate neutrophils.

Experiment [3] addresses T1, human NE (Homo sapiens, UniProt P08246).
T1 construct: purchased Sigma, St. Louis, Mo; USA
T1 sequence (P08246 30-267): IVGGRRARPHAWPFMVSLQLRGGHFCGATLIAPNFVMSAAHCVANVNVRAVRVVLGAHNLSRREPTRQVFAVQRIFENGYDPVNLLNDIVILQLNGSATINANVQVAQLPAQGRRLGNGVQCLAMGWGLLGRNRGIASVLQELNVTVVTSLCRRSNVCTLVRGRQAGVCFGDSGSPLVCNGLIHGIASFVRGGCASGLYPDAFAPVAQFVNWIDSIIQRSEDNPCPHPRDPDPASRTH
The experiment in a line: Inhibition of commercially available pure neutrophil elastase. As to conditions: 0.0075 U/ml human NE (Sigma), 96-well plate, 30 minutes, 405 nm. The format is biochemical. The source says: In a control group, 0.1% DMSO was used to substitute the compound solution. Moreover, in the positive control group, PMSF was used to substitute the compound solution.

The target of experiment [4] is T2, human neutrophil elastase (Homo sapiens, UniProt P08246).
T2 construct: endogenous in cells; cell-free supernatant used
T2 sequence (P08246 30-267): T1 sequence (P08246 30-267)
Nature of the experiment: Inhibition of NE activity in supernatant of activated neutrophils. The experiment is classed as biochemical. As to conditions: supernatant of FMLP/CB-activated human neutrophils containing NE; mean ± S.E.M. (n = 3). From the text: The neutrophils obtained in the section of “3. […] In a control group, 100% DMSO was used to substitute the compound solution. Moreover, in the positive control group, PMSF was used to substitute the compound solution.

Experiment [5] concerns lung injury caused by trauma-hemorrhagic shock. The experiment in a line: Water content assay of lung tissue after trauma-hemorrhagic shock. The experiment is classed as in vivo, rat. As to the method: (§2) Specifically, the effects of compound E7 on water content in lung tissues and myeloperoxidase (MPO) activity were measured.
(§3) In brief, male Sprague-Dawley (S.D.) rats having a body weight ranging from 275 to 325 g were obtained from National Laboratory Animal Center. The rats were randomly divided into four groups including experimental groups 1 and 2 and sham-operated groups 1 and 2. Each group included 8 rats. All rats were raised in an air-conditioned room with the following conditions: a light-dark cycle of 12-14 hours of illumination and 10-12 hours of darkness, 20-26° C., and relative humidity of 40-60%. The rats were free to have sufficient drinking water and feed and lived in the aforesaid room for one week to adapt to the environment. Before beginning the experiments, the rats were starved overnight while allowed to have sufficient drinking water ad libitum. The rats were anesthetized by isoflurane (Attane, Minrad, Bethlehem, Pa.) inhalation and were subjected to 5-cm midline laparotomy in the abdomen. […] The total amount of the blood volume of maximum bleed-out was recorded. […]
The left upper lobe was weighted and the weight was referred to as “wet weight”. The left upper lobe was then dried at 80° C. for 24 hours, and the weight, referred to as dry weight, thereof was measured. […]
The data were analyzed using the GraphPad Prism software (GraphPad Software, San Diego, Calif.). […]

For experiment [6] the test system is unchanged. Nature of the experiment: Myeloperoxidase (MPO) activity in lung tissue after trauma-hemorrhagic shock. The format is in vivo, rat. On the procedure:
as §2, §3
Activity of MPO was determined based on a method disclosed in H. P. Yu et al., Biochem. Pharmacol., 78: 983-992, 2009. […]

The mark [7] stands for this setting: sham-operated rats, E7 (group 2) vs vehicle (group 1).

On to `O=c1oc(-c2ccccc2F)nc2c(Cl)cccc12` [CE1, 8-chloro-2-(2′-fluorophenyl)-4H-benzo[d][1,3]oxazin-4-one], for which the IC50 in experiment [1] (Neutrophil) is 6.03 ± 0.65 µM; in experiment [2], above 25 µM.

Molecule `c1ccc2c(c1)[I+]c1ccccc1-2` [DPI, diphenyleneiodonium] registered a concentration for half-maximal inhibition (IC50) in experiment [2] of 0.97 ± 0.395 µM.

Regarding `CC(C)C[C@H](NC(=O)N[C@H](C(=O)N[C@@H](CCC(N)=O)C(=O)N[C@@H](C)C=O)[C@@H]1CCNC(=N)N1)C(=O)O` [Elastatinal, elastatinal], the IC50 in experiment [1] (Neutrophil) amounted to 56.5 ± 9.13 µM.

Take `O=S(=O)(F)Cc1ccccc1` [PMSF, phenylmethylsulfonyl fluoride]: the IC50 in experiment [1] turned out to be 110 ± 25 µM; in experiment [3] it was 52.2 ± 1.07 µM; in experiment [4], 95.2 ± 19.2 µM.

Regarding `Cc1ccccc1-c1nc2c(Cl)cccc2c(=O)o1` [CE4, 8-chloro-2-(2′-methylphenyl)-4H-benzo[d][1,3]oxazin-4-one], the half-inhibitory concentration (IC50) in experiment [1] (Neutrophil) was above 25 µM; in experiment [2], 17.5 ± 2.69 µM.

With `COc1ccccc1-c1nc2c(Cl)cccc2c(=O)o1` [CE5, 8-chloro-2-(2′-methoxylphenyl)-4H-benzo[d][1,3]oxazin-4-one], the IC50 came to 1.91 ± 0.14 µM in experiment [1] (Neutrophil) and 10 ± 0.59 µM in experiment [2].

Regarding `O=c1oc(-c2ccccc2Br)nc2c(Cl)cccc12` [CE3, 8-chloro-2-(2′-bromophenyl)-4H-benzo[d][1,3]oxazin-4-one], the figures for the IC50 in experiment [1] (Neutrophil) and in experiment [2] were 1.69 ± 0.3 µM and 6.56 ± 3.09 µM, respectively.

With `O=c1oc(-c2ccccc2Cl)nc2c(Cl)cccc12` [CE2, 8-chloro-2-(2′-chlorophenyl)-4H-benzo[d][1,3]oxazin-4-one], the figures for the IC50 in experiment [1] (Neutrophil) and in experiment [2] were 1.89 ± 1.1 µM and 8.66 ± 1.44 µM, respectively.

For `O=c1oc(-c2ccccc2Br)nc2cccc(Cl)c12` [Compound E7, 5-chloro-2-(2′-bromophenyl)-4H-benzo[d][1,3]oxazin-4-one], the “water content in lung tissue (wet weight/dry weight)” value in experiment [5] (setting [7]) is “no significant difference”; in experiment [5] (trauma-hemorrhage rats, E7 (experimental group 2) vs vehicle (experimental group 1), 24 hours after resuscitation, p<0.001), “significantly reduced”. Besides, the “MPO activity in lung tissue” value in experiment [6] (setting [7]) is given as “no significant difference”; in experiment [6] (trauma-hemorrhage rats, E7 (experimental group 2) vs vehicle (experimental group 1), 24 hours after resuscitation, p<0.01) it was “significantly reduced”.

One may read the IC50 as the concentration that gives 50% inhibition. Low readings indicate greater potency, high ones weaker potency.

The record behind these values is US20110319611A1, “BENZOXAZINONE COMPOUND, METHOD FOR PRODUCING THE SAME, AND PHARMACEUTICAL COMPOSITION CONTAINING THE SAME” (Chang Gung University, priority 2010, published 2011).
